These results are taken from patent US8071764B2, “Compounds of reverse turn mimetics and the use thereof (2)” (Choongwae Pharma Corporation, priority 2008, dated 2011).

In data set [1] the target is T1, cDNA-expressed human hepatic CYP3A4 (Homo sapiens, UniProt P08684).
T1 construct: purchased BD Gentest 456202
Description: P450 CYP3A4 inhibitory activity screening (fluorescent assay, BFC substrate). Format: in vitro ADME. The procedure:
Assay was conducted in a 200 μL volume in 96-well microtiter plates using cDNA-expressed human hepatic CYP3A4 (supersome, BD Gentest™ #456202). 7-Benzyloxy-4-trifluoromethyl-coumarin (BFC) was used as a substrate for CYP3A4. Test articles and substrate BFC were dissolved in 100% acetonitrile. The final volume of acetonitrile in the incubation mixture was less than 1% (volume/volume). Potassium phosphate buffer (pH 7.4, final concentration 0.1 M), MgCl2 (final concentration 8.3 mM), EDTA (final concentration 1.67 mM), a test article stock solution, a CYP3A4 supersome and NADPH (final concentration 0.25 mM) were added to each well. The reaction was initiated by the addition of substrate (BFC, final concentration 30 µM) after a 10 min pre-incubation at 37° C. After 10 min incubation at 37° C., the reaction was terminated by the addition of […] of acetonitrile:0.5 M Tris-base=4:1 (volume/volume). Thereafter, Fluorescent signal was measured using a fluorometer. BFC metabolite, 7-hydroxy-4-trifluoromethyl-coumarin, was measured using an excitation wavelength of 409 nm and an emission wavelength of 530 nm.

Data set [2] deals with Wnt signaling. Kind of data set: TopFlash reporter gene bioassay in SW480 cells. The class given is cell-based. The conditions noted are these: Homo sapiens. The procedure:
Inhibition activity against Wnt signaling was measured by the TopFlash reporter. The lower IC50 value means the higher inhibition activity.
TopFlash reporter gene Bioassay for the measurement of IC50 against SW480 cells
The test compound (Compound A) used in this example was prepared in Preparation Example 2. SW480 cells were transfected with the usage of Superfect™ transfect reagent (Qiagen, 301307). Cells were trypsinized briefly 1 day before transfection and plated on 6 well plate (5×10^5 cells/well) so that they were 50-80% confluent on the day of transfection.
Four microgram (TopFlash) and one microgram (pRL-null) of DNAs were diluted in 150 μl of serum-free medium, and 30 μl of Superfect™ transfect reagent was added. The DNA-Superfect mixture was incubated at room temperature for 15 min, and then, 1 ml of 10% FBS DMEM was added to this complex for an additional 3 hours of incubation. While complexes were forming, cells were washed with PBS twice without antibiotics.
The DNA-Superfect™ transfect reagent complexes were applied to the cells before incubating at 37° C. at 5% CO2 for 3 hours. After incubation, recovery medium with 10% FBS was added to bring the final volume to 1.18 ml. After 3 hours incubation, the cells were harvested and reseeded to a 96 well plate (3×10^4 cells/well). After overnight incubation at 37° C. at 5% CO2, the cells were treated with Compound A for 24 hours. […]
Background: In a reporter assay the amount or activity of a reporter protein is the signal.

Data set [3] deals with MV-4-11 cells. Description: Cell growth inhibition assay on AML cancer cells. Format: cell-based. The conditions noted are these: Homo sapiens, MV4-11, 72 hours. As to the method: Cell growth Inhibition assay was performed to investigate the rate of inhibition of cell proliferation by the test compounds. MV-4-11 (human, Acute Myeloid Leukemia cell line) cells were cultured in Iscove's modified Dulbecco's medium (IMDM) including 10% fetal bovine serum (FBS), 1× penicillin/streptomycin (10,000 units/ml Penicillin, […] Streptomycin in 0.85% NaCl). MV-4-11 cells were harvested with IMDM medium and 5×10^4 cells/well were transferred to each well of 96 well culture plates (Nunc, #167008). The test compounds were treated with the serial dilution and duplicated for each concentration. For the serial dilution, the test compounds were repeatedly diluted with the same volume of media onto 96-well assay block (costar, #3956). After the dilution, each compound was added to each well. The background absorbance was also measured during the test compounds treatment by adding the IMDM media in replacement of test compound to the negative control plate. The plates were incubated for 3 days (72 hours) at 37° C. in the humidified incubator containing 5% CO2. On the last day, 20 μL of CellTiter 96 Aqueous One Solution (Promega #G3581) was added to the culture in each well and the plates were incubated for a few hours at 37° C. in the humidified incubator containing 5% CO2. After the incubation, the absorbance of each cell was measured at 490 nm using an EnVision (Perkinelmer, USA). The […] values were calculated using a Prism 3.0 program.

Where [4] appears, read: fluorescent assay, read-out: CYP3A4 inhibition, IC50 (μM) fluorescent assay.
The mark [5] stands for this setting: MV-4-11 AML cells, read-out: MV-4-11, GI50.
Where [6] appears, read: MV-4-11 cells, FIG. 4, read-out: GI50.

Read-outs that look alike come from different tables or passages of the source.

What is called IC50 is the concentration that gives 50% inhibition. A word on the GI50: it is the concentration that inhibits growth by half.

T1 sequence (P08684 whole entry): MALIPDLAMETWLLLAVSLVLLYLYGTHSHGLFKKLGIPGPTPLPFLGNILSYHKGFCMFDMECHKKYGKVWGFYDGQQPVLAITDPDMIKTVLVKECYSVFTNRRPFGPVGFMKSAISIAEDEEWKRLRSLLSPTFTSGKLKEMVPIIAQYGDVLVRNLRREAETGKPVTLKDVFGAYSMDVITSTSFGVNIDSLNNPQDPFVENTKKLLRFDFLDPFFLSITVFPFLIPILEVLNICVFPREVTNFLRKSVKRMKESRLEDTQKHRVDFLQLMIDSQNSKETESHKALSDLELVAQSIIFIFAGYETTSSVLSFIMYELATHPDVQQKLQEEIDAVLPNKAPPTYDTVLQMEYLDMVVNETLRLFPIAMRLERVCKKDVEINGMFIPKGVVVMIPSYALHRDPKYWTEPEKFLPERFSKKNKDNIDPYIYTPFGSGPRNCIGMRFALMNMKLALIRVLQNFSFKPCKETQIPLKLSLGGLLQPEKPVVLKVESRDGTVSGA

For `C=CCN1CC(=O)N2[C@@H](Cc3ccc(O)cc3)C(=O)N(Cc3cccc4nnn(CC(=O)N(C)C)c34)C[C@@H]2N1C(=O)NCc1ccccc1` [compound 7], the IC50 in data set [1] (setting [4]) was found to be 41.1 µM.
`C=CCN1CC(=O)N2[C@@H](Cc3ccc(O)cc3)C(=O)N(Cc3ccc4nn(C)nc4c3)C[C@@H]2N1C(=O)NCc1ccccc1` [compound 1]: the IC50 came to 19.2 µM in data set [1] (setting [4]) and 1 ± 0.25 µM in data set [2] (SW480, TopFlash reporter gene assay, read-out: RGA, IC50 (μM) TopF). Further, the GI50 in data set [3] (setting [5]) amounted to 0.26 µM.
`C=CCN1CC(=O)N2[C@@H](Cc3ccc(O)cc3)C(=O)N(Cc3cccc4nnn(CC(=O)OCC)c34)C[C@@H]2N1C(=O)NCc1ccccc1` [compound 3]: the GI50 in data set [3] (setting [5]) is 0.71 µM.
Same read-out and setting: for `C=CCN1CC(=O)N2[C@@H](Cc3ccc(O)cc3)C(=O)N(Cc3cccc4c3nnn4CC(N)=O)C[C@@H]2N1C(=O)NCc1ccccc1` [compound 12] the value was 0.56 µM.
`C=CCN1CC(=O)N2[C@@H](Cc3ccc(O)cc3)C(=O)N(Cc3ccc4nn(C)nc4c3)C[C@@H]2N1C(=O)NCc1ccccc1` [Compound A, 2-allyl-6-(4-hydroxy-benzyl)-8-(2-methyl-2H-benzotriazol-5-ylmethyl)-4,7-dioxo-hexahydro-pyrazino[2,1-c][1,2,4]triazine-1-carboxylic acid benzylamide]: the “inhibition of a CYP3A4 enzyme (in words)” value in data set [1] (FIG. 2) was “weak inhibition”. The IC50 in data set [1] (Table 6, FIG. 2, read-out: IC50 against CYP3A4 activity) was determined as 19.2 µM; in data set [2] (SW480 cells, TopFlash, 24 hours treatment, FIG. 3, read-out: IC50 of Compound A for SW480 cells) it was 1 ± 0.254 µM. In addition, in data set [3] (setting [6]), the GI50 was 0.262 µM.
Consider `C=CCN1CC(=O)N2[C@@H](Cc3ccc(O)cc3)C(=O)N(Cc3cccc4c3nnn4CC(=O)NC)C[C@@H]2N1C(=O)NCc1ccccc1` [compound 13], for which the IC50 in data set [1] (setting [4]) worked out at 32.4 µM.
On to `C=CCN1CC(=O)N2[C@@H](Cc3ccc(O)cc3)C(=O)N(Cc3cccc4c3nnn4CC(=O)NCc3ccncc3)C[C@@H]2N1C(=O)NCc1ccccc1` [compound 14], for which, in data set [3] (setting [5]), the GI50 came to 0.6 µM.
Consider `C=CCN1CC(=O)N2[C@@H](Cc3ccc(O)cc3)C(=O)N(Cc3cccc4c3nnn4CC(=O)OCC)C[C@@H]2N1C(=O)NCc1ccccc1` [compound 5], for which, in data set [1] (setting [4]), the IC50 turned out to be 7.4 µM.
Turning to `C=CCN1CC(=O)N2[C@@H](Cc3ccc(O)cc3)C(=O)N(Cc3cccc4nnn(CC(=O)N5CCOCC5)c34)C[C@@H]2N1C(=O)NCc1ccccc1` [compound 4], the concentration for half-maximal inhibition (IC50) in data set [1] (setting [4]) stood at 6.23 µM. The GI50 in data set [3] (setting [5]) stood at 0.93 µM.
On to `C=CCN1CC(=O)N2[C@@H](Cc3ccc(O)cc3)C(=O)N(Cc3cccc4nnn(CC(=O)O)c34)C[C@@H]2N1C(=O)NCc1ccccc1` [compound 3], for which the IC50 in data set [1] (setting [4]) is above 50 µM.
Consider `C=CCN1CC(=O)N2[C@@H](Cc3ccc(O)cc3)C(=O)N(Cc3cccc4nnn(CC(=O)N(C)C)c34)C[C@@H]2N1C(=O)NCc1ccccc1` [compound 8], for which the GI50 in data set [3] (setting [5]) was 1.92 µM.
The same measure, in the same setting: for `C=CCN1CC(=O)N2[C@@H](Cc3ccc(O)cc3)C(=O)N(Cc3cccc4c3nnn4CC(=O)NC)C[C@@H]2N1C(=O)NCc1ccccc1` [compound 15] the value was 0.18 µM; for `C=CCN1CC(=O)N2[C@@H](Cc3ccc(O)cc3)C(=O)N(Cc3cccc4nnn(CC(=O)N5CCN(C)CC5)c34)C[C@@H]2N1C(=O)NCc1ccccc1` [compound 5], 2.97 µM.
In the case of `C=CCN1CC(=O)N2[C@@H](Cc3ccc(O)cc3)C(=O)N(Cc3cccc4nnn(CC(=O)NCCOC)c34)C[C@@H]2N1C(=O)NCc1ccccc1` [compound 8], in data set [1] (setting [4]), the IC50 was determined as 46.9 µM.
Still for that read-out and setting: for `C=CCN1CC(=O)N2[C@@H](Cc3ccc(O)cc3)C(=O)N(Cc3cccc4nnn(CC(N)=O)c34)C[C@@H]2N1C(=O)NCc1ccccc1` [compound 12] the value was 33.2 µM.
As to `C=CCN1CC(=O)N2[C@@H](Cc3ccc(O)cc3)C(=O)N(Cc3cccc4nnn(CC(=O)NCCOC)c34)C[C@@H]2N1C(=O)NCc1ccccc1` [compound 9], the GI50 in data set [3] (setting [5]) is 1.85 µM.
Still for that read-out and setting: for `C=CCN1CC(=O)N2[C@@H](Cc3ccc(O)cc3)C(=O)N(Cc3cccc4nnn(CC(N)=O)c34)C[C@@H]2N1C(=O)NCc1ccccc1` [compound 13] the value was 3.27 µM.
For the compound `C=CCN1CC(=O)N2[C@@H](Cc3ccc(O)cc3)C(=O)N(Cc3cccc4c3nnn4CC(=O)O)C[C@@H]2N1C(=O)NCc1ccccc1` [compound 6], the IC50 in data set [1] (setting [4]) was above 50 µM.
Turning to `C=CCN1CC(=O)N2[C@@H](Cc3ccc(O)cc3)C(=O)N(Cc3cccc4c3nnn4CC(N)=O)C[C@@H]2N1C(=O)NCc1ccccc1` [Compound C], the GI50 in data set [3] (setting [6]) worked out at 0.56 µM.
Take `C=CCN1CC(=O)N2[C@@H](Cc3ccc(O)cc3)C(=O)N(Cc3cccc4c3nnn4CC(=O)N(C)C)C[C@@H]2N1C(=O)NCc1ccccc1` [compound 9]: in data set [1] (setting [4]), the IC50 amounted to 38 µM.
For `C=CCN1CC(=O)N2[C@@H](Cc3ccc(O)cc3)C(=O)N(Cc3cccc4c3nnn4CC(=O)OCC)C[C@@H]2N1C(=O)NCc1ccccc1` [compound 6], in data set [3] (setting [5]), the GI50 is 0.65 µM.
The same measure, in the same setting: as for `C=CCN1CC(=O)N2[C@@H](Cc3ccc(O)cc3)C(=O)N(Cc3cccc4c3nnn4CC(=O)N3CCOCC3)C[C@@H]2N1C(=O)NCc1ccccc1` [compound 7], the figure is 0.37 µM.
